Measured values taken from ChEMBL document CHEMBL5370659 (J Med Chem, 2023).
Calls of active or inactive are those of the source. The calls are words filed in the database; no cut-off is given here.

Tests used:
[1] = Metabolic stability in human hepatocytes assessed as intrinsic clearance; format: ADME, cell-based, Hepatocyte; conditions: read-out: CLH
[2] = target: T1, Tryptophan 5-hydroxylase 2 (Homo sapiens, UniProt Q8IWU9); experiment: Inhibition of recombinant MBP-tagged full length human THP2 using L-Trp as substrate assessed as formation of 5-HTP by measuring fluorescent property
T1 sequence (Q8IWU9 whole entry): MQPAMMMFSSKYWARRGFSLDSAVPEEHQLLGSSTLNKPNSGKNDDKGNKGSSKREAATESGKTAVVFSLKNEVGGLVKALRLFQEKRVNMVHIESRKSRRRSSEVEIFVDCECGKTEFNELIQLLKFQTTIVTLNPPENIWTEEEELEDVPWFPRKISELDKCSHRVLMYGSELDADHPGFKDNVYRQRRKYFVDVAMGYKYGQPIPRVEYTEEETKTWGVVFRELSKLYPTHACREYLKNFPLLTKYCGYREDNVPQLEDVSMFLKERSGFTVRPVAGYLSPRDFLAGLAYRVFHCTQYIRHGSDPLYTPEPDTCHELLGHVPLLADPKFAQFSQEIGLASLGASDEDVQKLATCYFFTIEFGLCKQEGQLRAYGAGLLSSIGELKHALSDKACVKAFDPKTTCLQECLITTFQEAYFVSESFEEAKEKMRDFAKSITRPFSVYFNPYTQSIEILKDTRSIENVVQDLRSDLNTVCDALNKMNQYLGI

MC-38 [3] = experiment: Antitumor activity against mouse MC-38 cells subcutaneously transplanted in C57BL/6N mouse assessed as reduction in absolute tumor volume at 50 mg/kg, po bid measured on day 20 relative to control; format: functional; conditions: MC-38, 480 h, route sc, time 20 day
[4] = Drug uptake in CD-1 (ICR) mouse lung at 50 mg/kg measured 0.5 hrs by LC-MS/MS analysis; format: ADME, organism-based; conditions: read-out: Drug uptake
[5] = Drug uptake in Sprague-Dawley rat lung at 20 mg/kg, po measured at 0.5 hrs by LC-MS/MS analysis; format: ADME, organism-based; conditions: read-out: Drug uptake
Mus musculus [6] = experiment: Effect on hedonic component behavior in C57BL/6N mouse at 10 mg/kg, po treated for 14 days by sucrose preference test; format: functional, organism-based; conditions: time 14.0 day
[7] = Toxicity in C57BL/6N mouse subcutaneously transplanted with mouse MC-38 cells assessed as general toxic effects at 50 mg/kg, po bid measured on day 20; format: organism-based; conditions: in vivo, sc, 480 h, time 20 day
[8] = Cmax in Sprague-Dawley rat at 20 mg/kg, po measured upto 1440 mins by LC-MS/MS analysis; format: ADME, organism-based; set-up: time < 1440 min, dose 20 mg/kg, route po; conditions: in vivo
[9] = Volume of distribution at steady state in Sprague-Dawley rat at 10 mg/kg, iv measured upto 1440 mins by LC-MS/MS analysis; format: ADME, organism-based; conditions: in vivo, read-out: Vdss
[10] = MRT (0 to infinitive) in Sprague-Dawley rat at 20 mg/kg, po measured upto 1440 mins by LC-MS/MS analysis; format: ADME, organism-based; conditions: in vivo
[11] = target: T2, Tryptophan 5-hydroxylase 1 (Homo sapiens, UniProt P17752); experiment: Inhibition of recombinant MBP-tagged full length human THP1 using L-Trp as substrate assessed as formation of 5-HTP by measuring fluorescent property
T2 sequence (P17752 whole entry): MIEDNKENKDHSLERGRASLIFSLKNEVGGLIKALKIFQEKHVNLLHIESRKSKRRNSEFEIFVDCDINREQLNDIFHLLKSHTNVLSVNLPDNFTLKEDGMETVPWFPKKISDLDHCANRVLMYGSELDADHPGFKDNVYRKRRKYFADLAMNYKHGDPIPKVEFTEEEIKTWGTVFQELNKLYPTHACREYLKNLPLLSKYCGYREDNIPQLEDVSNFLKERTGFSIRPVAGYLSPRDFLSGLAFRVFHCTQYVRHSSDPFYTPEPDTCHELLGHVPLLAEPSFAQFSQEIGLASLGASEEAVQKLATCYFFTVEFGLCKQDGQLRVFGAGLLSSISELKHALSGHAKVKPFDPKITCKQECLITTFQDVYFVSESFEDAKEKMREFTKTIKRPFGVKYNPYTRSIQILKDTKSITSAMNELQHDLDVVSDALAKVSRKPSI

[12] = target: T2, Tryptophan 5-hydroxylase 1; experiment: Binding affinity to […] (unknown origin) assessed as equilibrium dissociation constant by surface plasmon resonance analysis
Cytochrome P450 3A4 = Cytochrome P450 3A4 (Homo sapiens, UniProt P08684); experiment: Inhibition of CYP3A4 in human liver microsome using midazolam as substrate measured upto 50 uM incubated for 10 mins followed by NADPH addition incubated for 10 mins by LC/MS/MS analysis; format: ADME; conditions: microsomes, 20 min
Sequence of Cytochrome P450 3A4 (P08684 whole entry): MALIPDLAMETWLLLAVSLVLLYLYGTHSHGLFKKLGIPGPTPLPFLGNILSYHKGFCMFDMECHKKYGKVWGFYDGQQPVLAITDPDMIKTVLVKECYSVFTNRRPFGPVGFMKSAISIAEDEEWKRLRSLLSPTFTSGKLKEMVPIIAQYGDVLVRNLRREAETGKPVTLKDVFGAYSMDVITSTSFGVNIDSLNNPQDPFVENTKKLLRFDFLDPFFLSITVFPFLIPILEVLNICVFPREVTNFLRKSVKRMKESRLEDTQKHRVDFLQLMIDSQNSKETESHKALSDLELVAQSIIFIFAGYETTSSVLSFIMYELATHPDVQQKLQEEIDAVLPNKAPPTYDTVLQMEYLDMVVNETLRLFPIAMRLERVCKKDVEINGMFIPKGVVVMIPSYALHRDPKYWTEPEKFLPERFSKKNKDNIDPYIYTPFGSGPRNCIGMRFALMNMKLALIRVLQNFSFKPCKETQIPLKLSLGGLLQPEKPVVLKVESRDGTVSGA

[13] = Reduction in serotonin level in C57BL/6N mouse duodenum at 1.5 mg/kg, po bid treated for 7 days by HPLC analysis relative to control; format: functional; conditions: 168 h, time 7 day
[14] = Drug uptake in Sprague-Dawley rat lung at 50 mg/kg, po measured at 2 hrs by LC-MS/MS analysis; format: ADME, organism-based; conditions: read-out: Drug uptake
MC-38 [15] = experiment: Antitumor activity against mouse MC-38 cells subcutaneously transplanted in C57BL/6N mouse assessed as reduction in AUC of tumor growth at 50 mg/kg, po bid measured on day 20 relative to control; format: functional; conditions: MC-38, 480 h, route sc, time 20 day
[16] = Plasma concentration in Sprague-Dawley rat at 20 mg/kg, po measured at 2 hrs by LC-MS/MS analysis; format: ADME, organism-based
[17] = MRT (0 to last) in Sprague-Dawley rat at 10 mg/kg, iv measured upto 1440 mins by LC-MS/MS analysis; format: ADME, organism-based; conditions: in vivo
[18] = Half life in CD-1 (ICR) mouse at 50 mg/kg, po measured upto 1440 mins by LC-MS/MS analysis; format: ADME, organism-based; conditions: in vivo
[19] = MRT (0 to infinitive) in Sprague-Dawley rat at 10 mg/kg, iv measured upto 1440 mins by LC-MS/MS analysis; format: ADME, organism-based; conditions: in vivo
[20] = Metabolic stability in human hepatocytes assessed as half life; format: ADME, cell-based, Hepatocyte
[21] = Permeability across apical to basal side in MDCK-MDR1 cells at pH 6.5/7.4 measured at 5 uM by LC-MS/MS analysis; format: ADME, cell-based, Canis lupus familiaris; conditions: dog, MDCK-MDR1, pH 6.5
[22] = MRT (0 to last) in Sprague-Dawley rat at 50 mg/kg, po measured upto 1440 mins by LC-MS/MS analysis; format: ADME, organism-based; conditions: in vivo
[23] = AUC (0 to infinitive) in Sprague-Dawley rat at 20 mg/kg, po measured upto 1440 mins by LC-MS/MS analysis; format: ADME, organism-based; set-up: dose 20 mg/kg, time < 1440 min, route po; conditions: in vivo
[24] = AUCExtra in Sprague-Dawley rat at 10 mg/kg, iv measured upto 1440 mins by LC-MS/MS analysis; format: ADME, organism-based; conditions: in vivo, 24 h
Mus musculus [25] = experiment: Effect on total travelled distance of C57BL/6N mouse at 20 mg/kg, po treated for 14 days by locomotor activity test; format: functional, organism-based; conditions: time 14.0 day
[26] = Permeability across basal to apical side in MDCK-MDR1 cells at pH 6.5/7.4 measured at 5 uM by LC-MS/MS analysis; format: ADME, cell-based, Canis lupus familiaris; conditions: dog, MDCK-MDR1, pH 6.5
[27] = Tlast in CD-1 (ICR) mouse at 50 mg/kg, po measured upto 1440 mins by LC-MS/MS analysis; format: ADME, organism-based; conditions: in vivo, 24 h

CCn1c(=O)[nH]c(=O)c2c1nc(Cc1cn3cc(C)sc3n1)n2CC1COC1
CLint scaled [1]: < 8.6 mL/min/kg | IC50 [2]: 16 nM | inhibition in vivo at 50 mg/kg (MC-38 [3]): 35% | concentration at 0.5 h [4]: 1720 ng/g | concentration at 0.5 h [5]: 482 ng/g | Activity (Mus musculus [6]): inactive | Activity [7]: Non-Toxic | Cmax [8]: 2090 ng/mL | Vd [9]: 1.4 L/kg | MRT inf [10]: 3.14 h | IC50 [11]: 77 nM | Kd [12]: 3.2 nM | inhibition (INH) (Cytochrome P450 3A4): Not Active | inhibition in vivo at 1.5 mg/kg [13]: 40% | concentration at 2 h [14]: 391 ng/g | inhibition in vivo at 50 mg/kg (MC-38 [15]): 35% | concentration at 2 h [16]: 196 ng/mL | MRT last at 24 h [17]: 0.61 h | half-life [18]: 1.76 h | MRT inf [19]: 0.7 h | half-life [20]: > 2.42 h | Papp A→B at 5 µM [21]: < 0.54 ×10⁻⁶ cm/s | MRT last at 24 h [22]: 2.63 h | AUC(0-inf) [23]: 3320 ng·h/mL | %AUCextra [24]: 0.46% | Activity (Mus musculus [25]): inactive | Papp B→A at 5 µM [26]: 15 ×10⁻⁶ cm/s | Tlast [27]: 12 h
